Literature values in patent US10035944B2, “Using synthetic acid compositions as alternatives to conventional acids in the oil and gas industry” (priority 2014, dated 2018).

Conditions: death in 2-3 minutes

Structure (SMILES): Cl [Hydrogen chloride gas, Hydrogen chloride]
- level at which death can occur: 1300-2000 ppm
